Laboratory results taken from the supplement of paper PMC10307832.

Legend:
Assay in all cases: relative viability (nuclei count vs DMSO), 5 days (fraction); higher = more cells survive
NCI-H1623 = tested on: NCI-H1623
Outline: (§1)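 Dosing by pin tool came one day after lung cancer cell lines were seeded in 1536-well plates, using either one drug or a fixed anchor-drug dose plus five library-drug doses (not always all listed) in √10 steps. After 5 days, nuclei were counted on 4× images. Relative viability is treated-well nuclei count divided by vehicle-well nuclei count, and values are medians of duplicate plates.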

NCI-H1648 = tested on: NCI-H1648
Outline: as §1

NCI-H2009 = tested on: NCI-H2009
Outline: as §1

NCI-H460 = tested on: NCI-H460
Outline: as §1

NCI-H522 = tested on: NCI-H522
Outline: as §1

NCI-H661 = tested on: NCI-H661
Outline: as §1

Work on C=C1C(=O)O[C@@H](CCCCCCCC)[C@@H]1C(=O)O [C-75] + COc1cccc2cc(-c3nc([C@H]4CC[C@H](C(=O)O)CC4)n4ncnc(N)c34)[nH]c12 [OSI-027] (partner 0.5 µM) yielded a relative viability (NCI-H1623; first compound 0.08 µM) of 0.463, a relative viability (NCI-H1623; first compound 0.253 µM) of 0.503 and a relative viability (NCI-H1623; first compound 0.8 µM) of 0.416. It also gave a relative viability (NCI-H1623; first compound 2.53 µM) of 0.38, a relative viability (NCI-H1623; first compound 8 µM) of 0.457 and a relative viability (NCI-H1648; first compound 0.08 µM) of 0.238. It also gave a relative viability (NCI-H1648; first compound 0.253 µM) of 0.301, a relative viability (NCI-H1648; first compound 0.8 µM) of 0.276 and a relative viability (NCI-H1648; first compound 8 µM) of 0.267. The relative viability (NCI-H2009; first compound 0.08 µM) was 0.675, the relative viability (NCI-H2009; first compound 0.253 µM) was 0.686 and the relative viability (NCI-H2009; first compound 0.8 µM) was 0.567. It also gave a relative viability (NCI-H2009; first compound 2.53 µM) of 0.545, a relative viability (NCI-H2009; first compound 8 µM) of 0.426 and a relative viability (NCI-H460; first compound 0.08 µM) of 0.664. The relative viability (NCI-H460; first compound 0.253 µM) was 0.751, the relative viability (NCI-H460; first compound 0.8 µM) was 0.59 and the relative viability (NCI-H460; first compound 8 µM) was 0.527. For the same compound, the relative viability (NCI-H522; first compound 0.08 µM) was 0.744, the relative viability (NCI-H522; first compound 0.253 µM) was 0.819 and the relative viability (NCI-H522; first compound 0.8 µM) was 0.753. The relative viability (NCI-H522; first compound 8 µM) was 0.641, the relative viability (NCI-H661; first compound 0.08 µM) was 0.697 and the relative viability (NCI-H661; first compound 0.253 µM) was 0.71. For the same compound, the relative viability (NCI-H661; first compound 0.8 µM) was 0.72, the relative viability (NCI-H661; first compound 2.53 µM) was 0.635 and the relative viability (NCI-H661; first compound 8 µM) was 0.736.
NC(=O)Nc1cc(-c2cccc(F)c2)sc1C(=O)N[C@H]1CCCNC1 [AZD7762] + COc1cccc2cc(-c3nc([C@H]4CC[C@H](C(=O)O)CC4)n4ncnc(N)c34)[nH]c12 [OSI-027] (partner 0.5 µM) gave a relative viability (NCI-H1623; first compound 0.01 µM) of 0.44, a relative viability (NCI-H1623; first compound 0.03162 µM) of 0.464 and a relative viability (NCI-H1623; first compound 0.1 µM) of 0.414. It also gave a relative viability (NCI-H1623; first compound 0.3162 µM) of 0.424, a relative viability (NCI-H1623; first compound 1 µM) of 0.378 and a relative viability (NCI-H1648; first compound 0.01 µM) of 0.244. For the same compound, the relative viability (NCI-H1648; first compound 0.03162 µM) was 0.257, the relative viability (NCI-H1648; first compound 0.1 µM) was 0.27 and the relative viability (NCI-H1648; first compound 0.3162 µM) was 0.253. The relative viability (NCI-H1648; first compound 1 µM) was 0.294, the relative viability (NCI-H2009; first compound 0.01 µM) was 0.664 and the relative viability (NCI-H2009; first compound 0.03162 µM) was 0.736. The relative viability (NCI-H2009; first compound 0.1 µM) was 0.73, the relative viability (NCI-H2009; first compound 0.3162 µM) was 0.601 and the relative viability (NCI-H2009; first compound 1 µM) was 0.459. It also gave a relative viability (NCI-H460; first compound 0.01 µM) of 0.861, a relative viability (NCI-H460; first compound 0.03162 µM) of 0.751 and a relative viability (NCI-H460; first compound 0.1 µM) of 0.649. The relative viability (NCI-H460; first compound 0.3162 µM) was 0.463, the relative viability (NCI-H460; first compound 1 µM) was 0.0347 and the relative viability (NCI-H522; first compound 0.01 µM) was 0.711. The relative viability (NCI-H522; first compound 0.03162 µM) was 0.683, the relative viability (NCI-H522; first compound 0.1 µM) was 0.696 and the relative viability (NCI-H522; first compound 0.3162 µM) was 0.755. The relative viability (NCI-H522; first compound 1 µM) was 0.807, the relative viability (NCI-H661; first compound 0.01 µM) was 0.731 and the relative viability (NCI-H661; first compound 0.03162 µM) was 0.717. It also gave a relative viability (NCI-H661; first compound 0.1 µM) of 0.616, a relative viability (NCI-H661; first compound 0.3162 µM) of 0.559 and a relative viability (NCI-H661; first compound 1 µM) of 0.319.
With CC1(C)CCC(c2ccc(Cl)cc2)=C(CN2CCN(c3ccc(C(=O)NS(=O)(=O)c4ccc(N[C@H](CCN5CCOCC5)CSc5ccccc5)c(S(=O)(=O)C(F)(F)F)c4)cc3)CC2)C1 [Navitoclax] + COc1cccc2cc(-c3nc([C@H]4CC[C@H](C(=O)O)CC4)n4ncnc(N)c34)[nH]c12 [OSI-027] (partner 0.5 µM) the relative viability (NCI-H1623; first compound 0.005 µM) was 0.419, the relative viability (NCI-H1623; first compound 0.01581 µM) was 0.376 and the relative viability (NCI-H1623; first compound 0.05 µM) was 0.369. For the same compound, the relative viability (NCI-H1623; first compound 0.1581 µM) was 0.439, the relative viability (NCI-H1623; first compound 0.5 µM) was 0.373 and the relative viability (NCI-H1648; first compound 0.005 µM) was 0.257. For the same compound, the relative viability (NCI-H1648; first compound 0.01581 µM) was 0.256, the relative viability (NCI-H1648; first compound 0.1581 µM) was 0.253 and the relative viability (NCI-H1648; first compound 0.5 µM) was 0.306. The relative viability (NCI-H2009; first compound 0.005 µM) was 0.598, the relative viability (NCI-H2009; first compound 0.01581 µM) was 0.792 and the relative viability (NCI-H2009; first compound 0.05 µM) was 0.576. For the same compound, the relative viability (NCI-H2009; first compound 0.1581 µM) was 0.643, the relative viability (NCI-H2009; first compound 0.5 µM) was 0.735 and the relative viability (NCI-H460; first compound 0.005 µM) was 0.652. It also gave a relative viability (NCI-H460; first compound 0.01581 µM) of 0.702, a relative viability (NCI-H460; first compound 0.05 µM) of 0.821 and a relative viability (NCI-H460; first compound 0.1581 µM) of 0.652. The relative viability (NCI-H460; first compound 0.5 µM) was 0.671, the relative viability (NCI-H522; first compound 0.005 µM) was 0.605 and the relative viability (NCI-H522; first compound 0.01581 µM) was 0.705. The relative viability (NCI-H522; first compound 0.05 µM) was 0.702, the relative viability (NCI-H522; first compound 0.1581 µM) was 0.685 and the relative viability (NCI-H522; first compound 0.5 µM) was 0.747. It also gave a relative viability (NCI-H661; first compound 0.005 µM) of 0.734, a relative viability (NCI-H661; first compound 0.01581 µM) of 0.775 and a relative viability (NCI-H661; first compound 0.05 µM) of 0.793. The relative viability (NCI-H661; first compound 0.1581 µM) was 0.687 and the relative viability (NCI-H661; first compound 0.5 µM) was 0.716.
With Oc1nc(-c2ccc(C(F)(F)F)cc2)nc2c1CSCC2 [XAV939] + COc1cccc2cc(-c3nc([C@H]4CC[C@H](C(=O)O)CC4)n4ncnc(N)c34)[nH]c12 [OSI-027] (partner 0.5 µM) the relative viability (NCI-H1623; first compound 0.08 µM) was 0.364, the relative viability (NCI-H1623; first compound 0.253 µM) was 0.386 and the relative viability (NCI-H1623; first compound 0.8 µM) was 0.318. The relative viability (NCI-H1623; first compound 2.53 µM) was 0.4, the relative viability (NCI-H1648; first compound 0.08 µM) was 0.273 and the relative viability (NCI-H1648; first compound 0.8 µM) was 0.236. The relative viability (NCI-H1648; first compound 2.53 µM) was 0.225, the relative viability (NCI-H2009; first compound 0.08 µM) was 0.676 and the relative viability (NCI-H2009; first compound 0.253 µM) was 0.561. It also gave a relative viability (NCI-H2009; first compound 0.8 µM) of 0.507, a relative viability (NCI-H2009; first compound 2.53 µM) of 0.369 and a relative viability (NCI-H460; first compound 0.08 µM) of 0.904. For the same compound, the relative viability (NCI-H460; first compound 0.253 µM) was 0.555, the relative viability (NCI-H460; first compound 0.8 µM) was 0.745 and the relative viability (NCI-H460; first compound 2.53 µM) was 0.631. The relative viability (NCI-H522; first compound 0.08 µM) was 0.564, the relative viability (NCI-H522; first compound 0.253 µM) was 0.696 and the relative viability (NCI-H522; first compound 0.8 µM) was 0.68. It also gave a relative viability (NCI-H522; first compound 2.53 µM) of 0.643, a relative viability (NCI-H661; first compound 0.08 µM) of 0.701 and a relative viability (NCI-H661; first compound 0.253 µM) of 0.719. For the same compound, the relative viability (NCI-H661; first compound 0.8 µM) was 0.696 and the relative viability (NCI-H661; first compound 2.53 µM) was 0.583.
Work on O=C(O)c1ccc(-c2c[nH]c3ncc(-c4ccccc4)cc23)cc1C1CCCC1 + Cc1cc(Nc2cc(N3CCN(C)CC3)nc(Sc3ccc(NC(=O)C4CC4)cc3)n2)n[nH]1 [Tozasertib] (partner 0.1 µM) yielded a relative viability (NCI-H1623; first compound 0.04 µM) of 0.421, a relative viability (NCI-H1623; first compound 0.1265 µM) of 0.488 and a relative viability (NCI-H1623; first compound 0.4 µM) of 0.481. It also gave a relative viability (NCI-H1623; first compound 1.265 µM) of 0.398, a relative viability (NCI-H1648; first compound 0.04 µM) of 0.545 and a relative viability (NCI-H1648; first compound 0.1265 µM) of 0.635. It also gave a relative viability (NCI-H1648; first compound 0.4 µM) of 0.439, a relative viability (NCI-H1648; first compound 1.265 µM) of 0.378 and a relative viability (NCI-H2009; first compound 0.04 µM) of 0.734. The relative viability (NCI-H2009; first compound 0.1265 µM) was 0.776, the relative viability (NCI-H2009; first compound 0.4 µM) was 0.681 and the relative viability (NCI-H2009; first compound 1.265 µM) was 0.564. The relative viability (NCI-H460; first compound 0.04 µM) was 0.413, the relative viability (NCI-H460; first compound 0.1265 µM) was 0.384 and the relative viability (NCI-H460; first compound 0.4 µM) was 0.491. For the same compound, the relative viability (NCI-H460; first compound 1.265 µM) was 0.306, the relative viability (NCI-H522; first compound 0.04 µM) was 0.537 and the relative viability (NCI-H522; first compound 0.1265 µM) was 0.654. For the same compound, the relative viability (NCI-H522; first compound 0.4 µM) was 0.579, the relative viability (NCI-H522; first compound 1.265 µM) was 0.498 and the relative viability (NCI-H661; first compound 0.04 µM) was 0.367. The relative viability (NCI-H661; first compound 0.1265 µM) was 0.36, the relative viability (NCI-H661; first compound 0.4 µM) was 0.353 and the relative viability (NCI-H661; first compound 1.265 µM) was 0.34.
